From patent US7153676B1, “Transacylases of the paclitaxel biosynthetic pathway” (priority 1999, dated 2006)
Where “and” joins values, the source holds several entries; their conditions need not be identical. Identical values can stand only once.

Experiments:
[1] = tested on: acetyl CoA:taxadien-5α-ol O-acetyl transacylase; conditions: cited from earlier work; for acetylation by the enzyme (substrate selectivity): more advanced paclitaxel precursors; for Km: cosubstrate of the taxadienol acetyl transacylase
[2] = biological target: T1, 10-deacetylbaccatin III-10-O-acetyl transferase (TAX6) (Taxus cuspidata, UniProt Q9M6E2); format: biochemical; conditions: for conversion/acetylation of substrate by TAX6: 10-hydroxyl of 10-deacetylbaccatin III, 5α-hydroxyl of taxadienol
T1 construct: to amplify the putative full-length acetyl transferase gene and incorporate NdeI and XbaI restriction sites; made in house; host or cells: E. coli JM109 (pCWori+)
T1 sequence (Q9M6E2 1-440): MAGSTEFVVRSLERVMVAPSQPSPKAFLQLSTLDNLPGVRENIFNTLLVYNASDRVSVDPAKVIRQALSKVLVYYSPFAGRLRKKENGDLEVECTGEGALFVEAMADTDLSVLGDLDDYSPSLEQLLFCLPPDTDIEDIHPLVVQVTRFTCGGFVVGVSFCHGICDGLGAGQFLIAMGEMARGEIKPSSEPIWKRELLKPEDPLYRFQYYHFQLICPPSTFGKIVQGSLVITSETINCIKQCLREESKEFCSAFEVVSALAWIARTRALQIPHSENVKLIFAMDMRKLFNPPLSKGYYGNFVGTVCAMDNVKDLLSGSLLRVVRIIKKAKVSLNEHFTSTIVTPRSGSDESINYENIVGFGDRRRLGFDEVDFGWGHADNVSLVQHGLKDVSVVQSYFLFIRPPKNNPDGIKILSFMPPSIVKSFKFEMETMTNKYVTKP
Method: For the enzyme preparation, E. coli cells transformed with the pCWori+ vector harboring the putative DBAT gene were grown overnight at 37° C. in 5 mL Luria-Bertani medium supplemented with ampicillin, and 1 mL of this inoculum was added to and grown in 100 mL Terrific Broth culture medium (6 g bacto-tryptone, Difco Laboratories, Spark, Md., 12 g yeast extract, EM Science, Cherryhill, N.J., and 2 mL gycerol in 500 mL water) supplemented with 1 mM IPTG, 1 mM thiamine HCl and 50 μg ampicillin/mL. After 24 hours, the bacteria were harvested by centrifugation, resuspended in 20 mL of assay buffer (25 mM Mopso, pH 7.4) and then disrupted by sonication at 0–4° C. The resulting homogenate was centrifuged at 15,000 g to remove debris, and a 1 mL aliquot of the supernatant was incubated with 10-deacetylbaccatin III (400 μM) and [2-^3H]acetyl coenzyme A (0.45μCi, 400 μM) for 1 hour at 31° C. The reaction mixture was extracted with ether and the solvent concentrated in vacuo. The crude product (pooled from five such assays) was purified by silica gel thin-layer chromatography (TLC; 70:30 ethyl acetate:hexane).
The activity of TAX6 (SEQ ID NO: 45) was assayed under standard conditions described in Walker et al., Arch. Biochem. Biophys.

Row | SMILES | acetylation by the enzyme (substrate selectivity) [1] | conversion/acetylation of substrate by TAX6 [2] | Km [1] | other results
1 | CC(=O)O[C@@]12CO[C@@H]1C[C@H](O)[C@@]1(C)C(=O)[C@H](O)C3=C(C)[C@@H](O)C[C@@](O)([C@@H](OC(=O)c4ccccc4)[C@H]21)C3(C)C [10-deacetylbaccatin III] | does not acetylate | catalyze the conversion | – | Km [2]: 10 µM; acetylation of the 1β-, 7β-, or 13α-hydroxyl groups by TAX6 ([2]; regioselectivity): does not acetylate
2 | CC(=O)O[C@H]1C(=O)[C@@]2(C)[C@H]([C@H](OC(=O)c3ccccc3)[C@]3(O)C[C@H](O)C(C)=C1C3(C)C)[C@]1(OC(C)=O)CO[C@@H]1C[C@@H]2O [baccatin III] | does not acetylate | – | – | –
3 | CC(C)(COP(=O)(O)OP(=O)(O)OC[C@H]1O[C@@H](n2cnc3c(N)ncnc32)[C@H](O)[C@@H]1OP(=O)(O)O)[C@@H](O)C(=O)NCCC(=O)NCCS [Co-enzyme A] | – | – | – | inhibition of the enzyme [1]: only weakly inhibited
4 | CC(=O)SCCNC(=O)CCNC(=O)[C@H](O)C(C)(C)COP(=O)(O)OP(=O)(O)OC[C@H]1O[C@@H](n2cnc3c(N)ncnc32)[C@H](O)[C@@H]1OP(=O)(O)O [acetyl CoA] | – | – | 5.5 µM and 6 µM | –
5 | C=C1[C@H]2C[C@@H]3CCC(C)=C(CC[C@]2(C)CC[C@@H]1O)C3(C)C [taxadienol, taxa-4(20),11(12)-dien-5α-ol] | – | nor does it acetylate | 4.2 µM and 4 µM | –
